One may read the IC50 as the concentration that gives 50% inhibition.

The results in this text go back to patent US20240246932A1 (Merck Sharp & Dohme LLC, priority 2021, published 2024).

Chain of human NaV 1.8 channels stably expressed in HEK 293 cells (Q9Y5Y9 whole entry): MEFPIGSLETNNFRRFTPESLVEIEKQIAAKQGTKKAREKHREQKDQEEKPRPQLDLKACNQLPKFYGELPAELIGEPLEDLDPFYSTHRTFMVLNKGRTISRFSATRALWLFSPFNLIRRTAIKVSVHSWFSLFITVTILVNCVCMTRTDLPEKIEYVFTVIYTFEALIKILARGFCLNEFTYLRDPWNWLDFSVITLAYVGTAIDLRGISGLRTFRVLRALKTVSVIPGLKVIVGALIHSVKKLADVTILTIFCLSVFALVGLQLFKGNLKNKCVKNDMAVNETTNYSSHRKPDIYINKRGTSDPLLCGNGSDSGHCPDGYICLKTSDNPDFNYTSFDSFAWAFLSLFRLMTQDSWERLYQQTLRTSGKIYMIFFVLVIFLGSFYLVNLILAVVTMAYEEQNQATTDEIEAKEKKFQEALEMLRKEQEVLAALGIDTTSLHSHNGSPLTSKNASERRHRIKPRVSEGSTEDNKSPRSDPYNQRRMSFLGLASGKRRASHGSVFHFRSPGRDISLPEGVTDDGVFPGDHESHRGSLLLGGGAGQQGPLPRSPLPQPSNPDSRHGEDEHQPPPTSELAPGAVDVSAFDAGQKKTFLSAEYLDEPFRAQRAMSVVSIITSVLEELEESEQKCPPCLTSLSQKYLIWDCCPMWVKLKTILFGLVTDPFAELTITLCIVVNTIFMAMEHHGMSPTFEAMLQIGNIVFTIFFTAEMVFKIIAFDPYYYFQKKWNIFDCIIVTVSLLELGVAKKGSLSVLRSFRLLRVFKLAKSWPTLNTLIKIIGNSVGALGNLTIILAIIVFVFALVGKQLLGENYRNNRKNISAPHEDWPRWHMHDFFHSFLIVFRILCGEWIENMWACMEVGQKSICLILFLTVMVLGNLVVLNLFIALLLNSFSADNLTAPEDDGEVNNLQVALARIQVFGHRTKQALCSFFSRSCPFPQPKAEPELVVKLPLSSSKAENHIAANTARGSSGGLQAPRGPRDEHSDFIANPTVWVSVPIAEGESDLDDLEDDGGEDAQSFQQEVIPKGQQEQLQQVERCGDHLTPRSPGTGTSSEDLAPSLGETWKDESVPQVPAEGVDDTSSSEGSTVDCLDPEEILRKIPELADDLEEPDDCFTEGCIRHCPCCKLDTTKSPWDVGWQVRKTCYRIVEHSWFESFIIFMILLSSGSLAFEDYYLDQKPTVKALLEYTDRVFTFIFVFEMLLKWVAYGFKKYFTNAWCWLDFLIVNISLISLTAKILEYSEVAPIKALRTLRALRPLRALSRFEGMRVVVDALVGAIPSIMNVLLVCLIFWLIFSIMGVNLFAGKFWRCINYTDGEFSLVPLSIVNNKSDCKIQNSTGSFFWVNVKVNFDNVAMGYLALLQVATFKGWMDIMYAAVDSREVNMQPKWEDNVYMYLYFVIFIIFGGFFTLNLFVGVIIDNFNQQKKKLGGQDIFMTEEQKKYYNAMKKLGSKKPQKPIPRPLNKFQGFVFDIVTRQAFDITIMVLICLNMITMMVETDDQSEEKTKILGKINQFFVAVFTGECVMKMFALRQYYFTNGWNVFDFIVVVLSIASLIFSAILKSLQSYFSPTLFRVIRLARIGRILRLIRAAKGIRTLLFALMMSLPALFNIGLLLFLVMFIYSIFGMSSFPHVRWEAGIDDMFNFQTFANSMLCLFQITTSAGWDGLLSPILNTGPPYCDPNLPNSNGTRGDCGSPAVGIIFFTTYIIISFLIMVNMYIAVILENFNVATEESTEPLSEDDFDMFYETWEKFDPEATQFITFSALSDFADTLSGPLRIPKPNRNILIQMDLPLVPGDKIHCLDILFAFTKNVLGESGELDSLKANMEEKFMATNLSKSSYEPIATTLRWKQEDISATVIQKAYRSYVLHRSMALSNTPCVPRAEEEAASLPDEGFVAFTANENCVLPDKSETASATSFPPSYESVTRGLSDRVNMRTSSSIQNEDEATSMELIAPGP

In the test the target is human NaV 1.8 channels stably expressed in HEK 293 cells (Homo sapiens (Human), UniProt Q9Y5Y9). The test is described as follows: Nav1.8 Qube automated patch-clamp assay. Format: cell-based. Particulars: human NaV1.8 in HEK 293 cells, whole-cell voltage clamp, room temperature; read-out: IC50 values (nM) for Examples in the Nav1.8 Qube Assay. In outline:
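Whole-cell voltage clamp at room temperature on HEK293 cells; from −90 mV, a 10 s 1 Hz train of 20 ms pulses to 10 mV (repolarising to −67 mV) was applied. Peak currents at pulses 1 and 10 gave resting- and inactivated-state inhibition; IC50 fitted by Hill equation. Internal CsF/CsCl buffer.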
In general terms: In patch-clamp work, channel activity is measured electrically.
Turning to `C[C@@H]1C(=O)NCCN1C(=O)NC(c1ccc(OC(F)(F)F)c(Cl)c1)c1coc(C(F)(F)F)n1` (single isomer, unassigned) [Example 64B, (2R)-N-((S or R)-(3-chloro-4-(trifluoro-methoxy)phenyl)(2-(trifluoromethyl)oxazol-4-yl)methyl)-2-methyl-3-oxopiperazine-1-carboxamide], the IC50 turned out to be 3.5 nM. For `C[C@@H]1C(=O)NCCN1C(=O)NC(c1cnn(-c2ccc(F)cc2)c1)c1ccc(F)c(Cl)c1F` (single isomer, unassigned) [Example 65A, (2R)-N-((R or S)-(3-chloro-2,4-difluoro-phenyl)(1-(4-fluoro-phenyl)-1H-pyrazol-4-yl)methyl)-2-methyl-3-oxopiperazine-1-carboxamide] the value was 8.05 nM; for `C[C@@H]1C(=O)NCCN1C(=O)NC(c1cnn(-c2ccc(F)cc2)c1)c1ccc(F)c(Cl)c1F` (single isomer, unassigned) [Example 65B, (2R)-N-((S or R)-(3-chloro-2,4-difluoro-phenyl)(1-(4-fluoro-phenyl)-1H-pyrazol-4-yl)methyl)-2-methyl-3-oxopiperazine-1-carboxamide], 89.3 nM; for `C[C@@H]1C(=O)NCCN1C(=O)NC(c1ccc(F)c(Cl)c1)c1ccn(C(F)F)n1` (single isomer, unassigned) [Example 66A], 125 nM.

Turning to `C[C@@H]1C(=O)NCCN1C(=O)NC(c1ccc(F)c(Cl)c1)c1ccn(C(F)F)n1` (single isomer, unassigned) [Example 66B], the IC50 was determined as 82.3 nM. Turning to `C[C@@H]1C(=O)NCCN1C(=O)NC(c1ccc(F)c(Cl)c1)c1cnn(CC(F)(F)F)c1` (single isomer, unassigned) [Example 67A], the half-inhibitory concentration (IC50) was 890 nM. For `C[C@@H]1C(=O)NCCN1C(=O)NC(c1ccc(F)c(Cl)c1)c1cnn(CC(F)(F)F)c1` (single isomer, unassigned) [Example 67B, (2R)-N-((S or R)-(3-chloro-4-fluorophenyl)(1-(2,2,2-trifluoroethyl)-1H-pyrazol-4-yl)methyl)-2-methyl-3-oxopiperazine-1-carboxamide], the IC50 was 42 nM.

As to `C[C@@H]1C(=O)NCCN1C(=O)NC(c1ccc(Cl)cc1)c1ccnc(C(F)(F)F)n1` (single isomer, unassigned) [Example 68A], the IC50 was found to be 34.9 nM.

For `C[C@@H]1C(=O)NCCN1C(=O)NC(c1ccc(Cl)cc1)c1ccnc(C(F)(F)F)n1` (single isomer, unassigned) [Example 68B], the IC50 stood at 761 nM.

For the compound `C[C@@H]1C(=O)NCCN1C(=O)NC(c1cnc(C(F)(F)F)nc1)c1ccc(F)c(Cl)c1` (single isomer, unassigned) [Example 69A, (2R)-N-((R or S)-(3-chloro-4-fluorophenyl)(2-(trifluoromethyl)pyrimidin-5-yl)methyl)-2-methyl-3-oxopiperazine-1-carboxamide], the IC50 was found to be 136 nM. Then `C[C@@H]1C(=O)NCCN1C(=O)NC(c1cnc(C(F)(F)F)nc1)c1ccc(F)c(Cl)c1` (single isomer, unassigned) [Example 69B, (2R)-N-((S or R)-(3-chloro-4-fluorophenyl)(2-(trifluoromethyl)pyrimidin-5-yl)methyl)-2-methyl-3-oxopiperazine-1-carboxamide], with 23 nM. On to `C[C@@H]1C(=O)NCCN1C(=O)NC(c1ccc(F)c(Cl)c1)c1ccc(F)c(OCC(F)(F)F)n1` (single isomer, unassigned) [Example 70A], for which the IC50 is 51.4 nM. Then `C[C@@H]1C(=O)NCCN1C(=O)NC(c1ccc(F)c(Cl)c1)c1ccc(F)c(OCC(F)(F)F)n1` (single isomer, unassigned) [Example 70B], with 6.87 nM. `C[C@@H]1C(=O)NCCN1C(=O)NC(c1ccnc(OCC(F)(F)F)c1)c1ccc(F)c(Cl)c1` (single isomer, unassigned) [Example 71A, (2R)-N-((R or S)-(3-chloro-4-fluorophenyl)(2-(2,2,2-trifluoro-ethoxy)pyridin-4-yl)methyl)-2-methyl-3-oxopiperazine-1-carboxamide]: the IC50 was found to be 82.6 nM. For `C[C@@H]1C(=O)NCCN1C(=O)NC(c1ccnc(OCC(F)(F)F)c1)c1ccc(F)c(Cl)c1` (single isomer, unassigned) [Example 71B, (2R)-N-((S or R)-(3-chloro-4-fluorophenyl)(2-(2,2,2-trifluoro-ethoxy)pyridin-4-yl)methyl)-2-methyl-3-oxopiperazine-1-carboxamide] the value was 2.76 nM; for `C[C@@H]1C(=O)NCCN1C(=O)NC(c1ccc(F)c(Cl)c1)c1cccc(OC(F)F)n1` (single isomer, unassigned) [Example 72A], 195 nM; for `C[C@@H]1C(=O)NCCN1C(=O)NC(c1ccc(F)c(Cl)c1)c1cccc(OC(F)F)n1` (single isomer, unassigned) [Example 72B], 25.3 nM. Regarding `C[C@@H]1C(=O)NCCN1C(=O)NC(c1ccc(OC(F)F)nc1)c1ccc(F)c(Cl)c1` (single isomer, unassigned) [Example 73A, (2R)-N-((R or S)-(3-chloro-4-fluorophenyl)(6-(difluoromethoxy)pyridin-3-yl)methyl)-2-methyl-3-oxopiperazine-1-carboxamide], the IC50 is 7.01 nM. For `C[C@@H]1C(=O)NCCN1C(=O)NC(c1ccc(OC(F)F)nc1)c1ccc(F)c(Cl)c1` (single isomer, unassigned) [Example 73B, (2R)-N-((R or S)-(3-chloro-4-fluoro-phenyl)(6-(difluoro-methoxy)pyridin-3-yl)methyl)-2-methyl-3-oxopiperazine-1-carboxamide] the value was 20.6 nM.

For the compound `C[C@@H]1C(=O)NCCN1C(=O)NC(c1cnc(OC(F)F)nc1)c1ccc(F)c(Cl)c1F` (single isomer, unassigned) [Example 74A, (2R)-N-((R or S)-(3-chloro-2,4-difluoro-phenyl)(2-(difluoro-methoxy)pyrimidin-5-yl)methyl)-2-methyl-3-oxopiperazine-1-carboxamide], the IC50 was 71.1 nM. For `C[C@@H]1C(=O)NCCN1C(=O)NC(c1cnc(OC(F)F)nc1)c1ccc(F)c(Cl)c1F` (single isomer, unassigned) [Example 74B, (2R)-N-((S or R)-(3-chloro-2,4-difluorophenyl)(2-(difluoromethoxy)pyrimidin-5-yl)methyl)-2-methyl-3-oxopiperazine-1-carboxamide] the value was 1320 nM; for `C[C@@H]1C(=O)NCCN1C(=O)NC(c1ccc(C(C)(F)F)nc1)c1ccc(F)c(Cl)c1F` (single isomer, unassigned) [Example 75A], 89.5 nM; for `C[C@@H]1C(=O)NCCN1C(=O)NC(c1ccc(C(C)(F)F)nc1)c1ccc(F)c(Cl)c1F` (single isomer, unassigned) [Example 75B], 2.95 nM.

With `C[C@@H]1C(=O)NCCN1C(=O)NC(c1ccc(C#N)cc1)c1ccc(Cl)c(C(F)(F)F)n1` (single isomer, unassigned) [Example 76A], the IC50 turned out to be 5.18 nM. Regarding `C[C@@H]1C(=O)NCCN1C(=O)NC(c1ccc(C#N)cc1)c1ccc(Cl)c(C(F)(F)F)n1` (single isomer, unassigned) [Example 76B], the IC50 was determined as 167 nM.

`C[C@@H]1C(=O)NCCN1C(=O)NC(c1ccc(Cl)c(C(F)(F)F)n1)c1ccc(F)c(Cl)c1F` (single isomer, unassigned) [Example 77A, (2R)-N-((R or S)-(3-chloro-2,4-difluorophenyl)(5-chloro-6-(trifluoromethyl)pyridin-2-yl)methyl)-2-methyl-3-oxopiperazine-1-carboxamide]: the IC50 was determined as 4.59 nM. Then `C[C@@H]1C(=O)NCCN1C(=O)NC(c1ccc(Cl)c(C(F)(F)F)n1)c1ccc(F)c(Cl)c1F` (single isomer, unassigned) [Example 77B, (2R)-N-((S or R)-(3-chloro-2,4-difluorophenyl)(5-chloro-6-(trifluoromethyl)pyridin-2-yl)methyl)-2-methyl-3-oxopiperazine-1-carboxamide], with 1.06 nM; and `O=C1CN(C(=O)NC(c2ccc(Cl)c(C(F)(F)F)n2)c2ccc(F)c(Cl)c2F)CCN1` (single isomer, unassigned) [Example 78A, N-((R or S)-(3-chloro-2,4-difluorophenyl)(5-chloro-6-(trifluoro-methyl)pyridin-2-yl)methyl)-3-oxopiperazine-1-carboxamide], with 15.3 nM. In the case of `O=C1CN(C(=O)NC(c2ccc(Cl)c(C(F)(F)F)n2)c2ccc(F)c(Cl)c2F)CCN1` (single isomer, unassigned) [Example 78B, N-((S or R)-(3-chloro-2,4-difluorophenyl)(5-chloro-6-(trifluoro-methyl)pyridin-2-yl)methyl)-3-oxopiperazine-1-carboxamide], the IC50 came to 3.54 nM.

`C[C@@H]1C(=O)NCCN1C(=O)NC(c1ccc(F)c(Cl)c1)c1ccc(Cl)c(C(F)(F)F)n1` (single isomer, unassigned) [Example 79, (2R)-N-((R or S)-(3-chloro-4-fluoro-phenyl)(5-chloro-6-(trifluoromethyl)pyridin-2-yl)methyl)-2-methyl-3-oxopiperazine-1-carboxamide]: the IC50 is 0.58 nM. Then `O=C1CN(C(=O)NC(c2ccc(F)c(Cl)c2)c2ccc(Cl)c(C(F)(F)F)n2)CCN1` (single isomer, unassigned) [Example 80, N-((R or S)-(3-chloro-4-fluorophenyl)(5-chloro-6-(trifluoromethyl)pyridin-2-yl)methyl)-3-oxopiperazine-1-carboxamide], with 1.9 nM; and `C[C@@H]1C(=O)NCCN1C(=O)NC(c1ccc(C(F)(F)F)nc1)c1ccc(Cl)c(C(F)(F)F)n1` (single isomer, unassigned) [Example 81A, (2R)-N-((R or S)-(5-chloro-6-(trifluoromethyl)pyridin-2-yl)(6-(trifluoro-methyl)pyridin-3-yl)methyl)-2-methyl-3-oxopiperazine-1-carboxamide], with 8 nM.
